# Source: US7396837B2, “Antitumoral analogs of lamellarins” (Pharma Mar, S.A.U., priority 2002, dated 2008)
# Where two headings read alike, the source gives them in different places.
# Tests used:
# Format in all cases: cell-based
# [1] = system: SK-BR-3; assay: SRB colorimetric cell growth inhibition assay, SK-BR-3; conditions: for GI50: GI=growth inhibition, read-out: GI50 SK-BR-3
# In short: (§1)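 Human tumour cells were exposed continuously to the test sample, and growth and viability were quantified by sulforhodamine B staining. Means ± SD came from triplicate wells, and GI, TGI (cytostatic) and LC (cell killing) parameters were derived.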
# [2] = system: HeLa-APL; assay: SRB colorimetric cell growth inhibition assay, HeLa-APL (aplidine resistant); conditions: Homo sapiens; for GI50: read-out: GI50 HELA-APL; for CC50: cell killing (cytotoxic effect); for IC (TGI): read-out: TGI HELA-APL
# In short: as §1
# [3] = system: SK-MEL-28; assay: SRB colorimetric cell growth inhibition assay, SK-MEL-28; conditions: for IC (TGI): total growth inhibition (cytostatic effect), read-out: TGI MEL-28; for GI50: GI=growth inhibition, read-out: GI50 MEL-28
# In short: as §1
# [4] = system: PANC-1; assay: SRB colorimetric cell growth inhibition assay, PANC-1; conditions: for IC (TGI): total growth inhibition (cytostatic effect), read-out: TGI PANC-1; for CC50: cell killing (cytotoxic effect); for GI50: GI=growth inhibition, read-out: GI50 PANC-1
# In short: as §1
# [5] = system: IGROV; assay: SRB colorimetric cell growth inhibition assay, IGROV; conditions: for GI50: GI=growth inhibition, read-out: GI50 IGROV
# In short: as §1
# [6] = system: K-562; assay: SRB colorimetric cell growth inhibition assay, K-562; conditions: for IC (TGI): total growth inhibition (cytostatic effect), read-out: TGI K-562; for CC50: cell killing (cytotoxic effect); for GI50: GI=growth inhibition, read-out: GI50 K-562
# In short: as §1
# [7] = system: HT-29; assay: SRB colorimetric cell growth inhibition assay, HT-29; conditions: for GI50: GI=growth inhibition, read-out: GI50 HT-29; for CC50: cell killing (cytotoxic effect); for IC (TGI): total growth inhibition (cytostatic effect), read-out: TGI HT-29
# In short: as §1
# [8] = system: LoVo-Dox; assay: SRB colorimetric cell growth inhibition assay, LoVo-Dox (MDR); conditions: for IC (TGI): total growth inhibition (cytostatic effect), read-out: TGI LOVO-DOX; for CC50: cell killing (cytotoxic effect); for GI50: GI=growth inhibition, read-out: GI50 LOVO-DOX
# In short: as §1
# [9] = system: LNCaP; assay: SRB colorimetric cell growth inhibition assay, LNCaP; conditions: for GI50: GI=growth inhibition, read-out: GI50 LN-caP
# In short: as §1
# [10] = system: DU-145; assay: SRB colorimetric cell growth inhibition assay, DU-145; conditions: for GI50: GI=growth inhibition, read-out: GI50 DU-145
# In short: as §1
# [11] = system: A-549; assay: SRB colorimetric cell growth inhibition assay, A-549; conditions: for GI50: GI=growth inhibition, read-out: GI50 A-549; for IC (TGI): total growth inhibition (cytostatic effect), read-out: TGI A-549; for CC50: cell killing (cytotoxic effect)
# In short: as §1
# [12] = system: HeLa; assay: SRB colorimetric cell growth inhibition assay, HeLa; conditions: Homo sapiens, HeLa; for CC50: cell killing (cytotoxic effect); for IC (TGI): read-out: TGI HELA; for GI50: GI=growth inhibition, read-out: GI50 HELA
# In short: as §1
# [13] = system: IGROV-ET; assay: SRB colorimetric cell growth inhibition assay, IGROV-ET (ET-743 resistant); conditions: for GI50: GI=growth inhibition, read-out: GI50 IGROV-ET
# In short: as §1
# [14] = system: LoVo; assay: SRB colorimetric cell growth inhibition assay, LoVo; conditions: for CC50: cell killing (cytotoxic effect); for IC (TGI): total growth inhibition (cytostatic effect), read-out: TGI LOVO; for GI50: GI=growth inhibition, read-out: GI50 LOVO
# In short: as §1
# [15] = Homo sapiens, SK-MEL-28, MEL-28
compound,measurement,setting,value
COc1cc(-c2c3c4cc(OC)c(OC(=O)[C@@H](N)C(C)C)cc4oc(=O)c3n3ccc4c(OC(=O)[C@@H](N)C(C)C)c(OC)c(OC)cc4c23)ccc1OC(=O)[C@@H](N)C(C)C [Compound 190],GI50,[1]; SK-BR-3,0.0922 µM
same,TGI SK-BR-3,"[1]; SK-BR-3, total growth inhibition (cytostatic effect)",3.83E−07 Molar
same,CC50,[1]; human,2.63 µM
same,GI50,[2],0.0899 µM
same,CC50,"[2]; read-out: LC50 HELA-APL, HELA-APL",5.2 µM
same,IC (TGI),[2],1.72 µM
same,IC (TGI),[3]; [15],10.7 µM
same,GI50,[3]; MEL-28,9.15 µM
same,CC50,[3]; human,10.7 µM
same,IC (TGI),"[4]; Homo sapiens, PANC-1, PANC-1",3.5 µM
same,CC50,"[4]; Homo sapiens, PANC-1, read-out: LC50 PANC-1, PANC-1",10.7 µM
same,GI50,[4]; PANC-1,0.376 µM
same,GI50,[5]; IGROV,0.134 µM
same,TGI IGROV,"[5]; IGROV, total growth inhibition (cytostatic effect)",8.95E−07 Molar
same,CC50,[5]; human,8.32 µM
same,IC (TGI),"[6]; Homo sapiens, K562, K-562",7.12 µM
same,CC50,"[6]; Homo sapiens, K562, read-out: LC50 K-562, K-562",10.7 µM
same,GI50,[6]; K-562,0.0718 µM
same,GI50,[7]; HT-29,2.99 µM
same,CC50,"[7]; Homo sapiens, HT-29, read-out: LC50 HT-29, HT-29",10.7 µM
same,IC (TGI),"[7]; Homo sapiens, HT-29",10.7 µM
same,IC (TGI),"[8]; Homo sapiens, LOVO-DOX",1.37 µM
same,CC50,"[8]; Homo sapiens, read-out: LC50 LOVO-DOX, LOVO-DOX",7.68 µM
same,GI50,[8]; LOVO-DOX,0.31 µM
same,GI50,[9]; LN-caP,0.0486 µM
same,TGI LN-caP,"[9]; LN-caP, total growth inhibition (cytostatic effect)",2.97E−07 Molar
same,CC50,[9]; human,1.97 µM
same,GI50,[10]; DU-145,0.0575 µM
same,TGI DU-145,"[10]; DU-145, total growth inhibition (cytostatic effect)",2.63E−07 Molar
same,CC50,[10]; human,10.7 µM
same,GI50,[11]; A-549,0.167 µM
same,IC (TGI),"[11]; Homo sapiens, A549, A-549",1.66 µM
same,CC50,"[11]; Homo sapiens, A549, read-out: LC50 A-549, A-549",10.7 µM
same,CC50,"[12]; read-out: LC50 HELA, HELA",3.93 µM
same,IC (TGI),[12],1.31 µM
same,GI50,[12],0.0833 µM
same,GI50,[13]; IGROV-ET,0.102 µM
same,TGI IGROV-ET,"[13]; IGROV-ET, total growth inhibition (cytostatic effect)",1.20E−06 Molar
same,CC50,[13]; human,6.42 µM
same,CC50,"[14]; Homo sapiens, LoVo, read-out: LC50 LOVO, LOVO",5.46 µM
same,IC (TGI),"[14]; Homo sapiens, LoVo",1.2 µM
same,GI50,[14]; LOVO,0.285 µM
COc1cc(-c2c3c4cc(OC)c(OC(=O)[C@H](C)NC(=O)[C@H](C)N)cc4oc(=O)c3n3ccc4c(OC(=O)[C@H](C)NC(=O)[C@H](C)N)c(OC)c(OC)cc4c23)ccc1OC(=O)[C@H](C)NC(=O)[C@H](C)N [Compound 5],GI50,"[1]; Homo sapiens, SK-BR-3, SK-BR-3",0.241 µM
same,CC50,"[1]; Homo sapiens, SK-BR-3, SK-BR-3, cell killing (cytotoxic effect), read-out: LC50 SK-BR-3",3.54 µM
same,IC (TGI),"[1]; Homo sapiens, SK-BR-3, SK-BR-3, total growth inhibition (cytostatic effect), read-out: TGI SK-BR-3",0.595 µM
same,GI50,"[2]; HELA-APL, GI=growth inhibition",0.31 µM
same,CC50,"[2]; HELA-APL, read-out: LC50 HELA-APL",5.55 µM
same,IC (TGI),"[2]; HELA-APL, total growth inhibition (cytostatic effect)",1.71 µM
same,GI50,[3]; [15],0.0629 µM
same,CC50,"[3]; Homo sapiens, SK-MEL-28, MEL-28, cell killing (cytotoxic effect), read-out: LC50 MEL-28",1.12 µM
same,IC (TGI),[3]; [15],0.249 µM
same,GI50,"[4]; Homo sapiens, PANC-1, PANC-1",0.418 µM
same,CC50,"[4]; Homo sapiens, PANC-1, PANC-1, read-out: LC50 PANC-1",4.51 µM
same,IC (TGI),"[4]; Homo sapiens, PANC-1, PANC-1",1.64 µM
same,GI50,"[5]; Homo sapiens, IGROV",0.247 µM
same,CC50,"[5]; Homo sapiens, IGROV, cell killing (cytotoxic effect), read-out: LC50 IGROV",4.54 µM
same,IC (TGI),"[5]; Homo sapiens, IGROV, total growth inhibition (cytostatic effect), read-out: TGI IGROV",0.855 µM
same,GI50,"[6]; Homo sapiens, K562, K-562",0.077 µM
same,CC50,"[6]; Homo sapiens, K562, K-562, read-out: LC50 K-562",7.4 µM
same,IC (TGI),"[6]; Homo sapiens, K562, K-562",1.1 µM
same,GI50,"[7]; Homo sapiens, HT-29, HT-29",1.7 µM
same,CC50,"[7]; Homo sapiens, HT-29, HT-29, read-out: LC50 HT-29",6.16 µM
same,IC (TGI),"[7]; Homo sapiens, HT-29, HT-29",3.24 µM
same,GI50,"[8]; Homo sapiens, LOVO-DOX",0.409 µM
same,CC50,"[8]; Homo sapiens, LOVO-DOX, read-out: LC50 LOVO-DOX",3.4 µM
same,IC (TGI),"[8]; Homo sapiens, LOVO-DOX",1.1 µM
same,GI50,"[9]; Homo sapiens, LNCaP, LN-caP",0.223 µM
same,CC50,"[9]; Homo sapiens, LNCaP, LN-caP, cell killing (cytotoxic effect), read-out: LC50 LN-caP",3.62 µM
same,IC (TGI),"[9]; Homo sapiens, LNCaP, LN-caP, total growth inhibition (cytostatic effect), read-out: TGI LN-caP",1.05 µM
same,GI50,"[10]; Homo sapiens, DU-145, DU-145",0.0356 µM
same,CC50,"[10]; Homo sapiens, DU-145, DU-145, cell killing (cytotoxic effect), read-out: LC50 DU-145",0.575 µM
same,IC (TGI),"[10]; Homo sapiens, DU-145, DU-145, total growth inhibition (cytostatic effect), read-out: TGI DU-145",0.119 µM
same,GI50,"[11]; Homo sapiens, A549, A-549",0.121 µM
same,CC50,"[11]; Homo sapiens, A549, A-549, read-out: LC50 A-549",4.65 µM
same,IC (TGI),"[11]; Homo sapiens, A549, A-549",1.02 µM
same,GI50,[12],0.124 µM
same,CC50,[12]; read-out: LC50 HELA,3.1 µM
same,IC (TGI),[12]; total growth inhibition (cytostatic effect),1.12 µM
same,GI50,"[13]; Homo sapiens, IGROV-ET",0.212 µM
same,CC50,"[13]; Homo sapiens, IGROV-ET, cell killing (cytotoxic effect), read-out: LC50 IGROV-ET",6.09 µM
same,IC (TGI),"[13]; Homo sapiens, IGROV-ET, total growth inhibition (cytostatic effect), read-out: TGI IGROV-ET",1.06 µM
same,GI50,"[14]; Homo sapiens, LoVo",0.345 µM
same,CC50,"[14]; Homo sapiens, LoVo, read-out: LC50 LOVO",4.14 µM
same,IC (TGI),"[14]; Homo sapiens, LoVo",1.06 µM
